Laboratory results as given in patent publication US7834187B2, “Crystalline variable hydrate of (S)-6-(4-(2-((3-9H-carbazol-4-yloxy)-2-hydroxypropyl)amino)-2-methylpropyl)phenoxy)-3-pyridinecarbox amide hemisuccinate salt” (Eli Lilly and Company, priority 2004, dated 2010).

What was measured:
[1] = biological target: B3 receptor (Homo sapiens, UniProt P13945); conditions: single dose; as described in WO 98/09625; cited from earlier work
[2] = Moisture sorption analysis; format: physicochemical; conditions: between 10 and 80% relative humidity
From the text: Various methods, including moisture sorption analysis, Karl Fischer analysis, X-ray powder diffraction (XRD) and ^13C solid-state nuclear magnetic resonance (SSNMR), are used to characterize SAM Classic Hydrate.
The SAM Classic Hydrate crystal structure retains approximately 6-11% water between 10 and 80% relative humidity. The hydrate rapidly equilibrates with the atmosphere, such that the water content observed by analytical techniques is a function of the relative humidity at which the sample was equilabrated.

Chain of B3 receptor (P13945 whole entry): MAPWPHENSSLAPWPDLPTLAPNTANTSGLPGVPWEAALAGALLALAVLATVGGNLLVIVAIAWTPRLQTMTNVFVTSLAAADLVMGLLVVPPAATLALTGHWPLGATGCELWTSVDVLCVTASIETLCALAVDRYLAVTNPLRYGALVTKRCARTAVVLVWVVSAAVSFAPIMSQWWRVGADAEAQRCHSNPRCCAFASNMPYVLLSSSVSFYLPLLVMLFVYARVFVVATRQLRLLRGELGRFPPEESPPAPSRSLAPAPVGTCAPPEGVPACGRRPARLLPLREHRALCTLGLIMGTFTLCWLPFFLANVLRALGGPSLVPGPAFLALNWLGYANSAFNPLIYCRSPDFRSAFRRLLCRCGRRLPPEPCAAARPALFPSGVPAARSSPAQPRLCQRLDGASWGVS

water retained by the crystal structure (moisture sorption profile) [2] | Compound | % of isoproterenol's response [1]
 | CC(C)(Cc1ccc(Oc2ccc(C(N)=O)cn2)cc1)NC[C@H](O)COc1cccc2[nH]c3ccccc3c12 [SAM Classic free base] | at least 30%
6-11% | CC(C)(Cc1ccc(Oc2ccc(C(N)=O)cn2)cc1)NC[C@H](O)COc1cccc2[nH]c3ccccc3c12.CC(C)(Cc1ccc(Oc2ccc(C(N)=O)cn2)cc1)NC[C@H](O)COc1cccc2[nH]c3ccccc3c12.O=C(O)CCC(=O)O [SAM Classic Hydrate, (S)-(3-pyridinecarboxamide,6-[4-[2-[[3-(9H-carbazol-4-yloxy)-2-hydroxypropyl]amino]-2-methylpropyl]phenoxy])-hemi-succinate salt] | 
